Where a name gives a salt, the structure may show the parent alone.
Assays:
[1] = target: T1, C-Met kinase (SEQ ID NO:10) (Homo sapiens, UniProt P08581); experiment: C-Met kinase assay (pyruvate kinase/lactate dehydrogenase coupled); conditions: 0.5 h preincubation at 22° C., ATP 100 μM; read-out: c-Met Enzyme Assay, biochemical IC50
T1 construct: purchased Invitrogen PV3143
Method: C-Met Kinase (SEQ ID NO:10) Assay
Activity of C-Met kinase (SEQ ID NO:10) was determined by following the production of ADP from the kinase reaction through coupling with the pyruvate kinase/lactate dehydrogenase system (e.g., Schindler, et al. Science (2000) 289, 1938-1942). In this assay, the oxidation of NADH (thus the decrease at A340 nm) was continuously monitored spectrophometrically. The reaction mixture (100 μl) contained C-Met (c-Met residues; 956-1390, from Invitrogen, catalogue #PV3143, 6 nM), polyE4Y (1 mg/ml), MgCl2 (10 mM), pyruvate kinase (4 units), lactate dehydrogenase (0.7 units), phosphoenol pyruvate (1 mM), and NADH (0.28 mM) in 90 mM Tris buffer containing 0.25 mM DTT, 0.2% octyl-glucoside and 1% DMSO, pH 7.5. Test compounds were incubated with C-Met (SEQ ID NO:10) and other reaction reagents at 22° C. for 0.5 h before ATP (100 μM) was added to start the reaction. The absorption at 340 n=was monitored continuously for 2 hours at 30° C. on Polarstar Optima plate reader (BMG). The reaction rate was calculated using the 1.0 to 2.0 h time frame. Percent inhibition was obtained by comparison of reaction rate with that of a control (i.e. with no test compound). IC50 values were calculated from a series of percent inhibition values determined at a range of inhibitor concentrations using software routines as implemented in the GraphPad Prism software package.

Abl kinase (SEQ ID NO:1) = target: T2, Abl kinase (SEQ ID NO:1) (Homo sapiens, UniProt P00519); experiment: Abl kinase assay (pyruvate kinase/lactate dehydrogenase coupled, ADP production); conditions: 2 h preincubation at 30° C., ATP 500 μM; read-out: Abl Enzyme Assay, biochemical IC50
T2 construct: purchased deCode Genetics
T2 sequence (P00519 with tags, fused parts or gaps): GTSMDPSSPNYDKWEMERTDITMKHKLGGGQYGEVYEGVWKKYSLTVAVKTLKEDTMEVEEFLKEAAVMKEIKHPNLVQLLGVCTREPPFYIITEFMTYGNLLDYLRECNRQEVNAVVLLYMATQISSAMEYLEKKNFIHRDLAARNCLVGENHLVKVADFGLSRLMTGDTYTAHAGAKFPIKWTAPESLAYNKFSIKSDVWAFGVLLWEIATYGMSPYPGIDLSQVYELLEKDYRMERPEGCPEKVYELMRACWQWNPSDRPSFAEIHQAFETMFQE
Method: Abl Kinase (SEQ ID NO:1) Assay
Activity of Abl kinase (SEQ ID NO:1) was determined by following the production of ADP from the kinase reaction through coupling with the pyruvate kinase/lactate dehydrogenase system (e.g., Schindler, et al. Science (2000) 289, 1938-1942). In this assay, the oxidation of NADH (thus the decrease at A340nm) was continuously monitored spectrophometrically. The reaction mixture (100 μl) contained Abl kinase (1 nM. Abl from deCode Genetics), peptide substrate (EAIYAAPFAKKK. 0.2 mM), MgCl2 (10 mM), pyruvate kinase (4 units), lactate dehydrogenase (0.7 units), phosphoenol pyruvate (1 mM), and NADH (0.28 mM) in 90 mM Tris buffer containing 0.2% octyl-glucoside and 3.5% DMSO, pH 7.5. Test compounds were incubated with Abl (SEQ ID NO:1) and other reaction reagents at 30° C. for 2 h before ATP (500 μM) was added to start the reaction. The absorption at 340 nm was monitored continuously for 2 hours at 30° C. on Polarstar Optima plate reader (BMG). The reaction rate was calculated using the 1.0 to 2.0 h time frame. Percent inhibition was obtained by comparison of reaction rate with that of a control (i.e. with no test compound). IC50 values were calculated from a series of percent inhibition values determined at a range of inhibitor concentrations using software routines as implemented in the GraphPad Prism software package.

[2] = target: T3, BaF3 cells transfected with wild type p210 BCR-Abl (Homo sapiens, UniProt P00519); experiment: Ba/F3 p210 whole cell proliferation assay (Cell Titer Blue, 72 hours); assay type: cell-based; conditions: 72 hours incubation; read-out: Ba/F3 p210 whole cell proliferation assay, antiproliferation IC50
T3 construct: fused on or other part: P11274 (Breakpoint cluster region protein)
T3 sequence (P00519 whole entry, change not shown, the tested form may be a part): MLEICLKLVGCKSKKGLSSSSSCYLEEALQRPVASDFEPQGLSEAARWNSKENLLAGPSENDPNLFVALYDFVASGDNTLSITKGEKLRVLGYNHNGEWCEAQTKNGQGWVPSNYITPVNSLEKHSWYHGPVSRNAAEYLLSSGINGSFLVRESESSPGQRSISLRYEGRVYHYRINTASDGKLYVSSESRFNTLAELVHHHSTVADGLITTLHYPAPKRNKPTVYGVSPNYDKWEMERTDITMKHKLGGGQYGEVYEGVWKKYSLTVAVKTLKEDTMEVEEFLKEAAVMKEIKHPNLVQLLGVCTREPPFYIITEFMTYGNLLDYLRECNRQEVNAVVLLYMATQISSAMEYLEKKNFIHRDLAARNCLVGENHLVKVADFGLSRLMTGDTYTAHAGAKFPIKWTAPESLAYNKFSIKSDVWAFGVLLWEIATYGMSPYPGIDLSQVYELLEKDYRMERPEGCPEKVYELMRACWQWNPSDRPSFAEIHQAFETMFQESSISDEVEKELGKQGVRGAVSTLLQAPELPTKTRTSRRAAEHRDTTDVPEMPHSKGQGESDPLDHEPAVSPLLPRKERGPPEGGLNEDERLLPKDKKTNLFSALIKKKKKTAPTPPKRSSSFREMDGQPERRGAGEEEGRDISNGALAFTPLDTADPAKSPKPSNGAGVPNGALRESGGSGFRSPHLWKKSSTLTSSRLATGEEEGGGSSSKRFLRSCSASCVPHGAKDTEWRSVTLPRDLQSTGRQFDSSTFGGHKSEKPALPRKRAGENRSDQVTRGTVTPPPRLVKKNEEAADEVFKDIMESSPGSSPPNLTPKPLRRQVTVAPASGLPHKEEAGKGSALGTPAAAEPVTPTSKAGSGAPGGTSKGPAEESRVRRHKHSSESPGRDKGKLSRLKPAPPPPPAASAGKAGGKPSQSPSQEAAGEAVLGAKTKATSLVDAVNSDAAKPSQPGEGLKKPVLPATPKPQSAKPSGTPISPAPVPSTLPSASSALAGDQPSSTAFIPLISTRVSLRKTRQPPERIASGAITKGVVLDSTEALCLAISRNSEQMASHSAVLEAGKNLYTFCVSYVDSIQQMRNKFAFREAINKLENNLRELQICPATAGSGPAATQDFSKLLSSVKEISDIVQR
Method: BaF3 cells (parental or transfected with the following: wild type p210 BCR-Abl and T315I p210 BCR-Abl was obtained from Professor Richard Van Etten (New England Medical Center, Boston, Mass.). Briefly, cells were grown in RPMI 1640 supplemented with 10% characterized fetal bovine serum (HyClone, Logan, Utah) at 37 degrees Celsius, 5% CO2, 95% humidity. Cells were allowed to expand until reaching 80% saturation at which point they were subcultured or harvested for assay use.
A serial dilution of test compound was dispensed into a 96 well black clear bottom plate (Corning, Corning, N.Y.). For each cell line, three thousand cells were added per well in complete growth medium. Plates were incubated for 72 hours at 37 degrees Celsius, 5% CO2, 95% humidity. At the end of the incubation period Cell Titer Blue (Promega, Madison, Wis.) was added to each well and an additional 4.5 hour incubation at 37 degrees Celsius, 5% CO2, 95% humidity was performed. Plates were then read on a BMG Fluostar Optima (BMG, Durham, N.C.) using an excitation of 544 nm and an emission of 612 nm. Data was analyzed using Prism software (Graphpad, San Diego, Calif.) to calculate IC50's.

T1 sequence (P08581 with tags, fused parts or gaps): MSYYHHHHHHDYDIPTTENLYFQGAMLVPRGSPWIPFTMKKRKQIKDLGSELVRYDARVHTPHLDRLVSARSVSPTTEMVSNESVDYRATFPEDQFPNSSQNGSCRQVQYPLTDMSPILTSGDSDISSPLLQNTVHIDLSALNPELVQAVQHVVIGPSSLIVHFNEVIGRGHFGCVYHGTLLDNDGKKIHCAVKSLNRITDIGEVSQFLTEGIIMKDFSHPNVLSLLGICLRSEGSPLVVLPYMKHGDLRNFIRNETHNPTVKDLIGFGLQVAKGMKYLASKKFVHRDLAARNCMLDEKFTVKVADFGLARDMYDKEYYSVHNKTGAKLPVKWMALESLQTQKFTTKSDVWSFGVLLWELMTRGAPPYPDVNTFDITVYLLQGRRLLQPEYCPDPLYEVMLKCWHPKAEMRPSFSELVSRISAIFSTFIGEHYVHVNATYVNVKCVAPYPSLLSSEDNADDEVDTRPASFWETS

Row | IC50 [1] | IC50 (Abl kinase (SEQ ID NO:1)) | GI50 [2] | Compound
1 | < 100 nM | < 100 nM | < 100 nM | CC(C)c1cc(NC(=O)Nc2ccc(Oc3ccnc(-c4cnn(C)c4)c3)cc2F)n(-c2cccc(C#N)c2)n1 [Example 2, 1-(1-(3-cyanophenyl)-3-isopropyl-1H-pyrazol-5-yl)-3-(2-fluoro-4-(2-(1-methyl-1H-pyrazol-4-yl)pyridin-4-yloxy)phenyl)urea]
2 | < 1000 nM | < 100 nM | < 100 nM | CC(C)c1cc(NC(=O)Nc2ccc(Oc3ccnc(-c4cnn(C)c4)c3)cc2F)n(-c2ccc(F)c(C#N)c2)n1 [Example 5, 1-(1-(3-cyano-4-fluorophenyl)-3-isopropyl-1H-pyrazol-5-yl)-3-(2-fluoro-4-(2-(1-methyl-1H-pyrazol-4-yl)pyridin-4-yloxy)phenyl)urea]
3 | < 100 nM | < 100 nM | < 100 nM | Cn1cc(-c2cc(Oc3ccc(NC(=O)Nc4cc(C(C)(C)C)nn4-c4ccc(CO)cc4)c(F)c3)ccn2)cn1 [Example 8, 1-(3-tert-butyl-1-(4-(hydroxymethyl)phenyl)-1H-pyrazol-5-yl)-3-(2-fluoro-4-(2-(1-methyl-1H-pyrazol-4-yl)pyridin-4-yloxy)phenyl)urea]
4 | < 1000 nM | < 100 nM | < 100 nM | CCc1cc(NC(=O)Nc2ccc(Oc3ccnc(-c4cnn(C)c4)c3)cc2F)n(-c2cccc(C#N)c2)n1 [Example 9, 1-(1-(3-cyanophenyl)-3-ethyl-1H-pyrazol-5-yl)-3-(2-fluoro-4-(2-(1-methyl-1H-pyrazol-4-yl)pyridin-4-yloxy)phenyl)urea]
5 | < 100 nM | < 100 nM | < 100 nM | CC(C)c1cc(NC(=O)Nc2ccc(Oc3ccnc(-c4cnn(C)c4)c3)c(F)c2F)n(-c2cccc(C#N)c2)n1 [Example 13, 1-(1-(3-cyanophenyl)-3-isopropyl-1H-pyrazol-5-yl)-3-(2,3-difluoro-4-(2-(1-methyl-1H-pyrazol-4-yl)pyridin-4-yloxy)phenyl)urea]
6 | < 10000 nM | < 100 nM | < 100 nM | Cc1ncc(NC(=O)Nc2ccc(Oc3ccnc(-c4cnn(C)c4)c3)cc2F)c(-c2ccccc2)n1 [Example 14, 1-(2-fluoro-4-(2-(1-methyl-1H-pyrazol-4-yl)pyridin-4-yloxy)phenyl)-3-(2-methyl-4-phenylpyrimidin-5-yl)urea]

The next lines start with the compound.

Row | Compound | IC50 [1] | IC50 (Abl kinase (SEQ ID NO:1)) | GI50 [2]
7 | 1-(2-tert-butyl-4-(pyridin-3-yl)pyrimidin-5-yl)-3-(2-fluoro-5-(8-methyl-2-(methylamino)-7-oxo-7,8-dihydropyrido[2,3-d]pyrimidin-6-yl)phenyl)urea [Example 10] | < 10000 nM | < 100 nM | < 100 nM
8 | CC(C)(C)c1cc(NC(=O)Nc2ccc(Oc3ccnc(-c4cn[nH]c4)c3)cc2F)n(-c2cccc(C#N)c2)n1 [Example 3, 1-(4-(2-(1H-pyrazol-4-yl)pyridin-4-yloxy)-2-fluorophenyl)-3-(3-tert-butyl-1-(3-cyanophenyl-1H-pyrazol-5-yl)urea hydrochloride] | < 100 nM | < 100 nM | < 100 nM
9 | Cn1cc(-c2cc(Oc3ccc(NC(=O)Nc4cc(C(C)(C)C)nn4-c4cccc(C#N)c4)c(F)c3)ccn2)cn1 [Example 4, 1-(3-tert-butyl-1-(3-cyanophenyl)-1H-pyrazol-5-yl)-3-(2-fluoro-4-(2-(1-methyl-1H-pyrazol-4-yl)pyridin-4-yloxy)phenyl)urea hydrochloride] | < 100 nM | < 100 nM | < 100 nM
10 | Cn1cc(-c2cc(Oc3ccc(NC(=O)Nc4cc(C(C)(C)C)nn4-c4ccc(C#N)cc4)c(F)c3)ccn2)cn1 [Example 6, 1-(3-tert-butyl-1-(4-cyanophenyl)-1H-pyrazol-5-yl)-3-(2-fluoro-4-(2-(1-methyl-1H-pyrazol-4-yl)pyridin-4-yloxy)phenyl)urea] | < 100 nM | < 100 nM | < 100 nM
11 | Cn1cc(-c2cc(Oc3ccc(NC(=O)Nc4cc(C(C)(C)C)nn4-c4cccc(CO)c4)c(F)c3)ccn2)cn1 [Example 7, 1-(3-tert-butyl-1-(3-(hydroxymethyl)phenyl)-1H-pyrazol-5-yl)-3-(2-fluoro-4-(2-(1-methyl-1H-pyrazol-4-yl)pyridin-4-yloxy)phenyl)urea p-toluenesulfonic acid] | < 100 nM | < 100 nM | < 100 nM
12 | Cc1ccc(-n2nc(C(C)C)cc2NC(=O)Nc2ccc(Oc3ccnc(-c4cnn(C)c4)c3)cc2F)cc1C#N [Example 11, 1-(1-(3-cyano-4-methylphenyl)-3-isopropyl-1H-pyrazol-5-yl)-3-(2-fluoro-4-(2-(1-methyl-1H-pyrazol-4-yl)pyridin-4-yloxy)phenyl)urea] | < 100 nM | < 100 nM | < 100 nM
13 | Cc1c(Oc2ccnc(-c3cnn(C)c3)c2)ccc(NC(=O)Nc2cc(C(C)C)nn2-c2cccc(C#N)c2)c1F [Example 12, 1-(1-(3-cyanophenyl)-3-isopropyl-1H-pyrazol-5-yl)-3-(2-fluoro-3-methyl-4-(2-(1-methyl-1H-pyrazol-4-yl)pyridin-4-yloxy)phenyl)urea] | < 100 nM | < 100 nM | < 100 nM
14 | CC(C)c1cc(NC(=O)Nc2ccc(Oc3ccnc(-c4cnn(C)c4)c3)c(F)c2)n(-c2cccc(C#N)c2)n1 [Example 16, 1-(1-(3-cyanophenyl)-3-isopropyl-1H-pyrazol-5-yl)-3-(3-fluoro-4-(2-(1-methyl-1H-pyrazol-4-yl)pyridin-4-yloxy)phenyl)urea] | < 100 nM | < 100 nM | < 100 nM
15 | CCc1cc(NC(=O)Nc2ccc(Oc3ccnc(-c4cnn(C(C)C)c4)c3)cc2F)n(-c2cccc(C#N)c2)n1 [Example 17, 1-(1-(3-cyanophenyl)-3-ethyl-1H-pyrazol-5-yl)-3-(2-fluoro-4-(2-(1-isopropyl-1H-pyrazol-4-yl)pyridin-4-yloxy)phenyl)urea] | < 1000 nM | < 100 nM | < 100 nM
16 | CCc1cc(NC(=O)Nc2ccc(Oc3ccnc(-c4cnn(C)c4)c3)cc2F)n(-c2ccc(CO)cc2)n1 [Example 19, 1-(3-ethyl-1-(4-(hydroxymethyl)phenyl)-1H-pyrazol-5-yl)-3-(2-fluoro-4-(2-(1-methyl-1H-pyrazol-4-yl)pyridin-4-yloxy)phenyl)urea] | < 1000 nM | < 100 nM | < 100 nM

Reference: patent publication US20080269267A1, “KINASE INHIBITORS USEFUL FOR THE TREATMENT OF MYLEOPROLIFIC DISEASES AND OTHER PROLIFERATIVE DISEASES” (Deciphera Pharmaceuticals, LLC, priority 2007, published 2008)
